# From PubChem BioAssay AID248 (DTP/NCI, 2004)
# “And” between values parts separate entries of the source, which are not always exact repeats. Identical values can stand only once. Inconclusive results and toxic doses are left out.
# Test system: L1210 leukemia ip in BDF1 mice, survival T/C
# Test: NCI In Vivo Anticancer Drug Screen. Data for tumor model L1210 Leukemia (intraperitoneal) in B6D2F1 (BDF1) mice
# Settings: endpoint: mean survival time, higher = longer survival
# Summary of the method: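 Transplantable tumor model; survival measured in treated vs vehicle control mice. Value = treated/control.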
# [1] = dose: 6.25 mg/kg/injection, schedule: Q04DX003 (ip), vehicle: saline
# [2] = dose: 12.5 mg/kg/injection, schedule: Q04DX003 (ip), vehicle: saline
# [3] = dose: 25.0 mg/kg/injection, schedule: Q01DX009 (ip), vehicle: saline
# [4] = dose: 25.0 mg/kg/injection, schedule: Q04DX003 (ip), vehicle: saline
# [5] = dose: 50.0 mg/kg/injection, schedule: Q04DX003 (ip), vehicle: saline
# [6] = dose: 100.0 mg/kg/injection, schedule: Q01DX009 (ip), vehicle: saline
# [7] = dose: 100.0 mg/kg/injection, schedule: Q04DX003 (ip), vehicle: saline with Tween-80
# [8] = dose: 100.0 mg/kg/injection, schedule: Q04DX003 (ip), vehicle: saline
# [9] = dose: 150.0 mg/kg/injection, schedule: Q01DX001 (ip), vehicle: saline
# [10] = dose: 200.0 mg/kg/injection, schedule: Q04DX003 (ip), vehicle: saline
# [11] = dose: 100.0 mg/kg/injection, schedule: Q01DX009 (ip), vehicle: Klucel (hydroxypropylcellulose) (HPC)
# [12] = dose: 200.0 mg/kg/injection, schedule: Q01DX009 (ip), vehicle: Klucel (hydroxypropylcellulose) (HPC)
# [13] = dose: 400.0 mg/kg/injection, schedule: Q01DX009 (ip), vehicle: Klucel (hydroxypropylcellulose) (HPC)
# [14] = dose: 100.0 mg/kg/injection, schedule: Q01DX001 (ip), vehicle: carboxymethylcellulose (CMC)
# [15] = dose: 200.0 mg/kg/injection, schedule: Q01DX001 (ip), vehicle: carboxymethylcellulose (CMC)
# [16] = dose: 400.0 mg/kg/injection, schedule: Q01DX001 (ip), vehicle: carboxymethylcellulose (CMC)
# [17] = dose: 6.25 mg/kg/injection, schedule: Q01DX009 (ip), vehicle: saline
# [18] = dose: 12.5 mg/kg/injection, schedule: Q01DX009 (ip), vehicle: saline
# [19] = dose: 50.0 mg/kg/injection, schedule: Q01DX009 (ip), vehicle: saline
structure (smiles),measurement,setting,value
CC(=O)n1cc(F)c(=O)[nH]c1=O,T/C,"dose: 2.1 mg/kg/injection, schedule: Q01DX009 (ip), vehicle: saline with Tween-80",108 % of control
same,T/C,"dose: 3.1 mg/kg/injection, schedule: Q01DX009 (ip), vehicle: saline with Tween-80",111 % of control
same,T/C,[1],108 % of control
same,T/C,[2],115 % of control
same,T/C,[3],152 % of control
same,T/C,[4],123 % of control
same,T/C,[5],151 % of control
same,T/C,[6],101 % of control
same,T/C,[7],188 % of control
same,T/C,[8],207 % of control
same,T/C,[9],152 % of control
same,T/C,[10],113 % of control
same,T/C,"dose: 300.0 mg/kg/injection, schedule: Q01DX001 (ip), vehicle: saline",151 % of control
CON1C(=O)c2ccccc2S1=O (stereo unspecified),T/C,"dose: 100.0 mg/kg/injection, schedule: Q04DX002 (ip), vehicle: Klucel (hydroxypropylcellulose) (HPC)",96 % of control
same,T/C,"dose: 200.0 mg/kg/injection, schedule: Q04DX002 (ip), vehicle: Klucel (hydroxypropylcellulose) (HPC)",92 % of control
COc1cccc(/C(C)=N\NC(=O)c2ccccc2)c1,T/C,"dose: 25.0 mg/kg/injection, schedule: Q04DX003 (ip), vehicle: saline with Tween-80",88 % of control
same,T/C,"dose: 50.0 mg/kg/injection, schedule: Q04DX003 (ip), vehicle: saline with Tween-80",90 % of control
same,T/C,[7],92 % of control
CN(Cc1ccccc1)C(=O)c1ccc(C(=O)N(C)Cc2ccccc2)cc1,T/C,[11],97 % of control
same,T/C,[12],108 % of control
same,T/C,[13],102 % of control
O=C(CS(=O)(=O)O)c1ccc(Br)cc1,T/C,"dose: 100.0 mg/kg/injection, schedule: Q04DX002 (ip), vehicle: saline with Tween-80",97 % of control
same,T/C,"dose: 200.0 mg/kg/injection, schedule: Q04DX002 (ip), vehicle: saline with Tween-80",97 % of control
same,T/C,"dose: 400.0 mg/kg/injection, schedule: Q04DX002 (ip), vehicle: saline with Tween-80",94 % of control
O=c1[nH]c2c(c(=O)[nH]1)OCN(Cc1ccccc1)C2,T/C,"dose: 50.0 mg/kg/injection, schedule: Q01DX001 (ip), vehicle: carboxymethylcellulose (CMC)",98 % of control
same,T/C,[14],105 % of control
same,T/C,[15],100 % of control
same,T/C,[16],100 % of control
O=C(/C=C/c1cccc([N+](=O)[O-])c1)Nc1cccnc1,T/C,"dose: 100.0 mg/kg/injection, schedule: Q01DX009 (ip), vehicle: gum acacia",90 % of control
same,T/C,"dose: 200.0 mg/kg/injection, schedule: Q01DX009 (ip), vehicle: gum acacia",96 % of control
same,T/C,"dose: 400.0 mg/kg/injection, schedule: Q01DX009 (ip), vehicle: gum acacia",94 % of control
O=C1CCCN(C2CCCCC2)CCC1O (stereo unspecified),T/C,"dose: 100.0 mg/kg/injection, schedule: Q04DX003 (ip), vehicle: acetone",96 % of control
same,T/C,"dose: 200.0 mg/kg/injection, schedule: Q04DX003 (ip), vehicle: acetone",93 % of control
C/C(=C\c1ccccc1)c1ccccc1,T/C,"dose: 50.0 mg/kg/injection, schedule: Q01DX001 (ip), vehicle: saline",91 % of control
same,T/C,"dose: 100.0 mg/kg/injection, schedule: Q01DX001 (ip), vehicle: saline",97 % of control
same,T/C,"dose: 200.0 mg/kg/injection, schedule: Q01DX001 (ip), vehicle: saline",95 % of control
same,T/C,"dose: 400.0 mg/kg/injection, schedule: Q01DX001 (ip), vehicle: saline",101 % of control
CC(=O)NCC1(c2ccccc2)CCN(CCCC(=O)c2ccc(F)cc2)CC1,T/C,"dose: 1.56 mg/kg/injection, schedule: Q03HX024 (ip), vehicle: saline",94 % of control
same,T/C,"dose: 3.12 mg/kg/injection, schedule: Q03HX024 (ip), vehicle: saline",98 % of control
same,T/C,"dose: 4.1 mg/kg/injection, schedule: Q01DX009 (ip), vehicle: saline",96 % of control
same,T/C,[17],98 % of control
same,T/C,"dose: 8.2 mg/kg/injection, schedule: Q01DX009 (ip), vehicle: saline",96 % of control
same,T/C,[18],102 % of control
same,T/C,[2],100 % of control
same,T/C,"dose: 16.5 mg/kg/injection, schedule: Q01DX009 (ip), vehicle: saline",89 % of control
same,T/C,"dose: 18.75 mg/kg/injection, schedule: Q01DX001 (ip), vehicle: saline",100 % of control
same,T/C,[3],96 % of control
same,T/C,"dose: 25.0 mg/kg/injection, schedule: Q03HX024 (ip), vehicle: saline",86 % of control
same,T/C,[4],100 % of control and 101 % of control (2×)
same,T/C,"dose: 33.0 mg/kg/injection, schedule: Q01DX009 (ip), vehicle: saline",86 % of control
same,T/C,"dose: 37.5 mg/kg/injection, schedule: Q01DX001 (ip), vehicle: saline",96 % of control
same,T/C,[19],109 % of control
same,T/C,[5],101 % of control and 108 % of control and 118 % of control
same,T/C,"dose: 66.0 mg/kg/injection, schedule: Q01DX009 (ip), vehicle: saline",91 % of control
same,T/C,"dose: 75.0 mg/kg/injection, schedule: Q01DX001 (ip), vehicle: saline",96 % of control
same,T/C,[6],107 % of control
same,T/C,[8],103 % of control
same,T/C,[9],91 % of control
same,T/C,[10],113 % of control
COC(=O)CCC(NC(=O)c1ccc(NCc2cnc3nc(N)n(C)c(=O)c3n2)cc1)C(=O)OC (stereo unspecified),T/C,"dose: 100.0 mg/kg/injection, schedule: Q01DX001 (ip), vehicle: saline with Tween-80",106 % of control
same,T/C,"dose: 200.0 mg/kg/injection, schedule: Q01DX001 (ip), vehicle: saline with Tween-80",104 % of control
same,T/C,"dose: 400.0 mg/kg/injection, schedule: Q01DX001 (ip), vehicle: saline with Tween-80",101 % of control
COc1ccc(C(OC2OC(n3cnc4c(=S)nc(N)[nH]c43)CC2OC(C)=O)(c2ccccc2)c2ccc(OC)cc2)cc1 (stereo unspecified),T/C,[11],97 % of control
same,T/C,"dose: 100.0 mg/kg/injection, schedule: Q04DX003 (ip), vehicle: Klucel (hydroxypropylcellulose) (HPC)",101 % of control
same,T/C,[12],97 % of control
same,T/C,"dose: 200.0 mg/kg/injection, schedule: Q04DX003 (ip), vehicle: Klucel (hydroxypropylcellulose) (HPC)",97 % of control
same,T/C,[13],95 % of control
same,T/C,"dose: 400.0 mg/kg/injection, schedule: Q04DX003 (ip), vehicle: Klucel (hydroxypropylcellulose) (HPC)",97 % of control
Cc1cccc2cccnc12,T/C,"dose: 100.0 mg/kg/injection, schedule: Q01DX001 (ip), vehicle: other",104 % of control
same,T/C,"dose: 200.0 mg/kg/injection, schedule: Q01DX001 (ip), vehicle: other",106 % of control
same,T/C,"dose: 400.0 mg/kg/injection, schedule: Q01DX001 (ip), vehicle: other",98 % of control
O=C(O)C1CCC2CCCCC2[N-]1.O=C(O)C1CCC2CCCCC2[N-]1.[Cu+2] (stereo unspecified),T/C,[17],97 % of control
same,T/C,[1],105 % of control
same,T/C,[18],90 % of control
same,T/C,[2],100 % of control
same,T/C,[3],97 % of control
same,T/C,[4],94 % of control
ClC(CN1CCCCC1)C(Cl)c1ccccc1 (stereo unspecified),T/C,[19],90 % of control
same,T/C,"dose: 50.0 mg/kg/injection, schedule: Q04DX003 (ip), vehicle: saline sonified",96 % of control
same,T/C,[6],91 % of control
same,T/C,"dose: 100.0 mg/kg/injection, schedule: Q04DX003 (ip), vehicle: saline sonified",91 % of control
same,T/C,"dose: 200.0 mg/kg/injection, schedule: Q04DX003 (ip), vehicle: saline sonified",101 % of control
CC(C)(C)C(C(=O)O)C(=O)O,T/C,"dose: 50.0 mg/kg/injection, schedule: Q04DX002 (ip), vehicle: saline",98 % of control
same,T/C,"dose: 100.0 mg/kg/injection, schedule: Q04DX002 (ip), vehicle: saline",98 % of control
same,T/C,"dose: 200.0 mg/kg/injection, schedule: Q04DX002 (ip), vehicle: saline",92 % of control
Nc1[nH]c(=S)[nH]c(=O)c1N=Nc1c(Br)cc(S(N)(=O)=O)cc1Br,T/C,[14],94 % of control
same,T/C,[15],100 % of control
same,T/C,[16],103 % of control
Cc1ccc(S(=O)(=O)OC2COC3C2OC2OC(C)(C)OC23)cc1 (stereo unspecified),T/C,[7],112 % of control
same,T/C,"dose: 200.0 mg/kg/injection, schedule: Q04DX003 (ip), vehicle: saline with Tween-80",101 % of control
same,T/C,"dose: 400.0 mg/kg/injection, schedule: Q04DX003 (ip), vehicle: saline with Tween-80",106 % of control
